Laboratory results from PubChem BioAssay (NCI).
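Tested at 5 concentrations; 48 h exposure; 96-well plates; endpoints linearly interpolated, else capped at highest concentration. At the GI50, growth is halved. The concentration for full growth arrest is given as TGI.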

What was measured:
Assay in all cases: inhibition of tumour cell growth, NCI panel, 48 h
[1] = system: SNB-19 CNS
[2] = system: RXF 393 renal
[3] = system: OVCAR-3 ovarian
[4] = system: HCT-15 colon
[5] = system: NCI-H23 lung
[6] = system: NCI-H226 lung
[7] = system: SK-MEL-28 melanoma
[8] = system: MCF7 breast
[9] = system: NCI-H522 lung
[10] = system: MDA-MB-435
[11] = system: BT-549 breast
[12] = system: HS 578T breast
[13] = system: SNB-75 CNS
[14] = system: DU-145 prostate
[15] = system: CCRF-CEM leukemia
[16] = system: RPMI-8226 leukemia
[17] = system: SK-MEL-2 melanoma
[18] = system: HCC-2998 colon
[19] = system: K-562 leukemia
[20] = system: 786-0 renal
[21] = system: SR leukemia
[22] = system: MALME-3M melanoma
[23] = system: OVCAR-5 ovarian
[24] = system: ACHN renal
[25] = system: SK-OV-3 ovarian
[26] = system: CAKI-1 renal
[27] = system: SK-MEL-5 melanoma
[28] = system: SF-295 CNS
[29] = system: SW-620 colon

Which GI50 [1] does the source give for `CC(=O)Nc1cc(F)cc(-c2ccc3[nH]cc(-c4ccccc4)c3n2)c1` here?
Its GI50 is 3.9 µM.

What about the TGI [1] of the same molecule?
Its TGI is 13.9 µM.

What about the GI50 [2] of the same molecule?
The GI50 was 2.5 µM.

What about the TGI [2] of the same molecule?
Its TGI is 7.97 µM.

What about the GI50 [3] of the same molecule?
Its GI50 is 5.08 µM.

What about the TGI [3] of the same molecule?
The TGI was 17.8 µM.

What about the GI50 [4] of the same molecule?
The GI50 was 2.08 µM.

And the TGI [4]?
The TGI was 5.05 µM.

What about the GI50 [5] of the same molecule?
The GI50 was 4.98 µM.

And the TGI [5]?
The TGI was 20 µM.

What about the GI50 [6] of the same molecule?
The GI50 was 6.31 µM.

And the TGI [6]?
Its TGI is 23 µM.

What about the GI50 [7] of the same molecule?
The GI50 was 2.43 µM.

And the TGI [7]?
The TGI was 6.13 µM.

What about the GI50 [8] of the same molecule?
The GI50 was 2.9 µM.

And the TGI [8]?
The TGI was 12.3 µM.

What about the GI50 [9] of the same molecule?
The GI50 was 1.83 µM.

What about the TGI [9] of the same molecule?
The TGI was 4.11 µM.

What about the GI50 [10] of the same molecule?
The GI50 was 4.05 µM.

What about the TGI [10] of the same molecule?
Its TGI is 15.5 µM.

What about the GI50 [11] of the same molecule?
The GI50 was 4.78 µM.

And the TGI [11]?
Its TGI is 17 µM.

What about the GI50 [12] of the same molecule?
The GI50 was 5.01 µM.

And the TGI [12]?
The TGI was 47.7 µM.

And the GI50 [13]?
Its GI50 is 4.93 µM.

And the TGI [13]?
The TGI was 18.1 µM.

What about the GI50 [14] of the same molecule?
Its GI50 is 5.52 µM.

What about the TGI [14] of the same molecule?
Its TGI is 17.9 µM.

What about the GI50 [15] of the same molecule?
The GI50 was 3.42 µM.

What about the TGI [15] of the same molecule?
Its TGI is 17.9 µM.

And the GI50 [16]?
The GI50 was 3.08 µM.

What about the TGI [16] of the same molecule?
Its TGI is 19.2 µM.

What about the GI50 [17] of the same molecule?
Its GI50 is 2.46 µM.

What about the TGI [17] of the same molecule?
Its TGI is 6.8 µM.

And the GI50 [18]?
Its GI50 is 2.11 µM.

And the TGI [18]?
The TGI was 4.71 µM.

And the GI50 [19]?
The GI50 was 2.79 µM.

And the TGI [19]?
The TGI was 9.11 µM.

And the GI50 [20]?
Its GI50 is 2.22 µM.

What about the TGI [20] of the same molecule?
The TGI was 5.65 µM.

And the GI50 [21]?
Its GI50 is 2.75 µM.

And the TGI [21]?
The TGI was 8.4 µM.

What about the GI50 [22] of the same molecule?
Its GI50 is 3.5 µM.

And the TGI [22]?
The TGI was 12.8 µM.

What about the GI50 [23] of the same molecule?
The GI50 was 4.92 µM.

What about the TGI [23] of the same molecule?
The TGI was 22.1 µM.

What about the GI50 [24] of the same molecule?
Its GI50 is 4.08 µM.

What about the TGI [24] of the same molecule?
The TGI was 14.3 µM.

And the GI50 [25]?
Its GI50 is 6.84 µM.

What about the TGI [25] of the same molecule?
Its TGI is 21.3 µM.

What about the GI50 [26] of the same molecule?
Its GI50 is 3.32 µM.

What about the TGI [26] of the same molecule?
The TGI was 12.2 µM.

What about the GI50 [27] of the same molecule?
The GI50 was 4.07 µM.

And the TGI [27]?
The TGI was 15 µM.

And the GI50 [28]?
Its GI50 is 2.1 µM.

What about the TGI [28] of the same molecule?
Its TGI is 5.16 µM.

What about the GI50 [29] of the same molecule?
The GI50 was 3.31 µM.

And the TGI [29]?
The TGI was 25.3 µM.
